According to PubChem BioAssay AID2842 (Southern Research Institute, 2010):
Values after ≈ are worked out from the molar mass of the structure shown.

Test system: M. tuberculosis H37Rv growth inhibition
Experiment: Mycobacterium tuberculosis H37Rv growth inhibition, putative kinase inhibitor library, confirmatory dose response (AID 2842);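 further: bacteria incubated one week before Alamar blue readout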

| SMILES | IC90 [µg/mL] |
| --- | --- |
| COC(=O)C(C)Oc1ccc2cc(-c3ccc(OC)cc3)c(=O)oc2c1 (stereo not drawn) | 1.07 (≈ 3.02 µM) |
| O=C1c2cccc3cccc(c23)C(=O)N1CCc1ccc(S(=O)(=O)N2CCCCC2)cc1 | 5.87 (≈ 13.1 µM) |
| O=C1C(Cl)=C(Nc2ccccc2O)C(=O)N1c1ccccc1 | 3.29 (≈ 10.5 µM) |
| Cc1ccc(C)c(-c2nnc(NC(=O)c3ccccc3C)o2)c1 | 2.48 (≈ 8.07 µM) |
| COc1cc(-c2nnc(NC(=O)C3CCCCC3)o2)cc(OC)c1OC | 18.4 (≈ 50.8 µM) |
| O=C(Nc1nnc(-c2ccco2)o1)c1cc(Cl)ccc1Cl | 4.99 (≈ 15.4 µM) |
| CC(C)C(=O)Nc1nnc(-c2ccccc2)o1 | 3.31 (≈ 14.3 µM) |
| CC(C)N1CCc2c(sc(NC(=O)c3ccc([N+](=O)[O-])s3)c2C(N)=O)C1 | 6.33 (≈ 16 µM) |
| COc1ccc(OCC(=O)Nc2ccc(I)cc2C)cc1 | 3.2 (≈ 8.06 µM) |
| CC(C)C(=O)Nc1nnc(-c2ccc(Br)cc2)o1 | 1.24 (≈ 4 µM) |
| Cc1ccc(-c2nnc(NC(=O)c3ccc(Cl)cc3Cl)o2)c(C)c1 | 4.12 (≈ 11.4 µM) |
| O=C(CSc1nnc(-c2ccncc2)o1)N1CCCCC1 | 14.2 (≈ 46.7 µM) |
| COc1ccccc1Cn1cc2c(-c3ccc(F)cc3)nnc-2c2cc(OC)c(OC)cc21 | 22 (≈ 49.7 µM) |
| Cc1ccc(-c2nnc(NC(=O)c3ccc(Br)s3)o2)c(C)c1 | 2.17 (≈ 5.74 µM) |
| Cc1ccc(-n2ncc3c(NC(C)C)ncnc32)cc1Cl | 64 (≈ 212 µM) |
| O=C(Nc1nnc(C2=COCCO2)o1)c1cc(Cl)sc1Cl | 34.1 (≈ 98 µM) |
| Cc1ccc(-c2nnc(NC(=O)c3ccccc3Br)o2)c(C)c1 | 0.27 (≈ 0.725 µM) |
| O=C(Nc1nnc(C2=COCCO2)o1)c1ccc2c(c1)CCCC2 | 0.44 (≈ 1.34 µM) |
| O=C(Nc1nnc(-c2ccc(Br)cc2)o1)C1COc2ccccc2O1 (stereo not drawn) | 7.27 (≈ 18.1 µM) |
| CC1=C(C(=O)Nc2cccc(Cl)c2)C(c2ccc(Br)cc2)NC(=O)N1 (stereo not drawn) | 20.3 (≈ 48.1 µM) |
| CCCCN1C(=O)c2cccc3c(NC(=O)c4ccc([N+](=O)[O-])s4)ccc1c23 | 22.7 (≈ 57.3 µM) |
| O=C(Nc1nnc(-c2ccccc2)o1)c1ccc2c(c1)CCCC2 | 15.5 (≈ 48.7 µM) |
| CC(C)c1ccc2nc(Nc3nc4ccc(S(C)(=O)=O)cc4s3)sc2c1 | 12 (≈ 29.8 µM) |
| Cc1ccccc1C(=O)Nc1nnc(-c2cc(Cl)ccc2Cl)o1 | 1.27 (≈ 3.65 µM) |

| SMILES | IC90 [µg/mL] |
| --- | --- |
| COc1cc2c(=O)c(C(=O)c3ccc(F)cc3)cn(Cc3ccc(C)cc3)c2cc1OC | 7.24 (≈ 16.8 µM) |
| COc1ccc(-c2nnc(NC(=O)c3ccc(Cl)s3)o2)cc1 | 0.94 (≈ 2.8 µM) |
| CCOc1cccc2nc(NC(=O)c3ccc(Oc4ccccc4)cc3)sc12 | 13.7 (≈ 35.1 µM) |
| CCOC(=O)N1CCN(c2ncnc3c2cnn3-c2ccc(C)c(C)c2)CC1 | 9.11 (≈ 23.9 µM) |
| NNC(=O)c1ccc(-c2ccccc2Cl)o1 | 3.96 (≈ 16.7 µM) |
| CCN1C(=O)CCc2cc(NS(=O)(=O)c3ccc(OCC(C)C)cc3)ccc21 | 18.3 (≈ 45.5 µM) |
| CSc1nnc(C)c(=O)n1COC(=O)c1ccc2ccccc2c1 | 3.38 (≈ 9.9 µM) |
| O=C(CCOc1ccccc1)Nc1nnc(-c2ccccc2)o1 | 6.68 (≈ 21.6 µM) |
| CCCCc1ccc2[nH]cc(C(=O)O)c(=O)c2c1 | 14.5 (≈ 59 µM) |
| COc1cccc(/C=N/Nc2nc(=O)[nH]nc2C)c1O | 0.5 (≈ 1.82 µM) |
| Cc1ccc2c(c1)NC(=O)c1cc(NS(=O)(=O)c3ccc4c(c3)OCCO4)ccc1O2 | 17.5 (≈ 39.9 µM) |
| Cc1ccc(N2C(=O)C(Cl)=C(Nc3cc(Cl)ccc3O)C2=O)cc1 | 25.4 (≈ 69.8 µM) |
| Cc1[nH]c2ccccc2c1SCCNC(=O)c1cc2ccccc2oc1=O | < 0.2 |
| CC1CN(c2ncnc3c2c(-c2ccccc2)cn3-c2ccc(F)cc2)CC(C)O1 (stereo not drawn) | 42.4 (≈ 105 µM) |
| OCc1cn(-c2ccccc2)nc1-c1ccc(F)cc1 | 6.38 (≈ 23.8 µM) |
| COc1cccc(-c2nnc(NC(=O)c3ccccc3Cl)o2)c1 | 2.69 (≈ 8.16 µM) |
| O=C1N/C(=N\N=C\c2ccccc2O)SC1Cc1cc(Cl)ccc1Cl (stereo not drawn) | 4.52 (≈ 11.5 µM) |
| O=C(Nc1nnc(-c2ccc3c(c2)CCCC3)o1)c1sc2ccccc2c1Cl | 34.5 (≈ 84.2 µM) |
| CCS(=O)(=O)c1ccc(C(=O)Nc2nnc(-c3ccc(Br)cc3)o2)cc1 | 24.6 (≈ 56.4 µM) |
| O=C(Nc1nnc(-c2ccc(Cl)cc2)o1)c1cccc(C(F)(F)F)c1 | 2.99 (≈ 8.13 µM) |
| Cc1ccc(C)c2sc(N(CCCn3ccnc3)C(=O)COc3ccccc3)nc12 | 6.05 (≈ 14.4 µM) |
| COc1cccc2sc(Nc3nnc(-c4ccc(F)cc4)o3)nc12 | 2.97 (≈ 8.68 µM) |
| C/C(=N\NC(=O)c1cc(-c2ccc(Cl)s2)[nH]n1)c1ccco1 | 6.9 (≈ 20.6 µM) |
| Cc1cc(NCCCn2ccnc2)n2ncc(-c3ccccc3)c2n1 | 3.12 (≈ 9.39 µM) |

| SMILES | IC90 [µg/mL] |
| --- | --- |
| COc1ccc(-c2nnc3c4ccccc4n(Cc4cccc(C)c4)cc2-3)cc1 | 13.4 (≈ 35.3 µM) |
| CSc1cccc(-c2nnc(NC(=O)/C=C/c3cccs3)o2)c1 | 4.49 (≈ 13.1 µM) |
| CCCCOc1ccc(C(=O)Nc2nnc(-c3ccccn3)o2)cc1 | 11.6 (≈ 34.3 µM) |
| COc1ccc(-c2nc(N3CCCCC3)nc3n[nH]c(N)c23)cc1 | 12.9 (≈ 39.8 µM) |
| Cc1ccc(C(=O)Nc2nnc(-c3cc(C)ccc3C)o2)cc1 | 41.5 (≈ 135 µM) |
| CC1CCCN(Cc2c(O)ccc3c(=O)c(-c4nc5ccccc5s4)c(N)oc23)C1 (stereo not drawn) | 2.89 (≈ 6.86 µM) |
| COc1ccc(C)c2sc(N(CCCn3ccnc3)C(=O)c3ccc(Cl)s3)nc12 | 2.69 (≈ 6.02 µM) |
| Cc1ccc(-c2nnc(NC(=O)c3nc4ccccc4s3)o2)c(C)c1 | 1.76 (≈ 5.02 µM) |
| CN(C)c1ccc(C(=O)Nc2nnc(C3=COCCO3)o2)cc1 | 9.01 (≈ 28.5 µM) |
| Cc1ccc(C)c(-c2nnc(NC(=O)C(C)C)o2)c1 | 6.62 (≈ 25.5 µM) |
| CCOc1ccc2nc(N(CCCn3ccnc3)C(=O)c3cccs3)sc2c1 | 3.43 (≈ 8.31 µM) |
| O=C(Cc1ccccc1)Nc1nnc(-c2ccc3c(c2)OCCO3)o1 | 15.8 (≈ 47 µM) |
| O=C(c1ccco1)N(CCCn1ccnc1)c1nc2ccccc2s1 | 4.28 (≈ 12.1 µM) |
| Cc1ccc(-c2nnc3c4cc5c(cc4n(Cc4ccccc4F)cc2-3)OCCO5)cc1C | 6.25 (≈ 14.2 µM) |
| COc1ccccc1Cn1cc2c(-c3ccc(Cl)cc3)nnc-2c2ccccc21 | 8.89 (≈ 22.2 µM) |
| O=Nc1c(-c2ccccc2)cc2ccccn12 | 3.32 (≈ 14.9 µM) |
| CN(C)c1ccc(Nc2nncc(=O)[nH]2)cc1 | 8.05 (≈ 34.8 µM) |
| OCCOCCNc1nc(Nc2cccc(F)c2)nc2c1cnn2-c1ccccc1 | 4.91 (≈ 12 µM) |
| CC(=O)Nc1nnc(-c2cc(C)ccc2C)o1 | 20.2 (≈ 87.3 µM) |
| O=C(CCOc1ccccc1)Nc1nnc(-c2cc(Cl)ccc2Cl)o1 | 1.79 (≈ 4.73 µM) |
| Oc1ccc(Br)cc1C1CC(c2ccoc2)=NN1 (stereo not drawn) | 25.3 (≈ 82.4 µM) |
| COc1ccc(-c2nc(NC(=O)c3cccc(C)c3)sc2C)cc1 | 5.78 (≈ 17.1 µM) |
| COC(=O)c1ccc(CSc2nnc(-c3ccncc3)o2)o1 | 5.77 (≈ 18.2 µM) |
| O=C(Nc1ccc(Cl)c(Cl)c1)NC1CC(=O)N(c2cccc(F)c2)C1 (stereo not drawn) | 6.41 (≈ 16.8 µM) |

| SMILES | IC90 [µg/mL] |
| --- | --- |
| Cc1ccccc1C(=O)Nc1nnc(-c2ccncc2)o1 | 13.5 (≈ 48.2 µM) |
| O=C(Cc1cccc2ccccc12)Nc1nnc(-c2cc(Cl)ccc2Cl)o1 | 94.5 (≈ 237 µM) |
| COc1ccc(-c2nnc3c4cc(OC)ccc4n(Cc4ccccc4F)cc2-3)cc1 | 9.08 (≈ 22 µM) |
| O=C(Nc1nnc(-c2ccc(Cl)cc2)o1)c1ccccc1Br | 2.46 (≈ 6.5 µM) |
| O=C(Nc1nnc(-c2cc(Cl)ccc2Cl)o1)c1ccc(S(=O)(=O)N2CCCC2)cc1 | 25.6 (≈ 54.8 µM) |
| O=C(/C=C/c1ccc(-c2ccccc2[N+](=O)[O-])o1)c1cccs1 | 13 (≈ 39.9 µM) |
| COc1cc2ccccc2cc1C(=O)Nc1nnc(-c2ccc(F)cc2)o1 | 5.59 (≈ 15.4 µM) |
| Cc1ccc(-c2nnc(NC(=O)C3=COCCO3)o2)c(C)c1 | 7.35 (≈ 24.4 µM) |
| COc1ccc2c(c1)c(=O)c(C(=O)c1ccc(Cl)cc1)cn2Cc1ccccc1 | 6.44 (≈ 15.9 µM) |
| Cc1cc(C)c2sc(N3CCCC3)nc2c1 | 1.75 (≈ 7.53 µM) |
| CC1CCc2c(sc(Nc3nc4c(F)cccc4s3)c2C(N)=O)C1 (stereo not drawn) | 8.58 (≈ 23.7 µM) |
| O=C(CSc1n[nH]c(=O)[nH]c1=O)c1ccccc1 | 12.1 (≈ 45.9 µM) |
| COc1ccc(-c2nnc3c4cc5c(cc4n(Cc4ccc(C)cc4)cc2-3)OCCO5)cc1 | 5.09 (≈ 11.6 µM) |
| O=C1CC(c2nc3ccccc3n2Cc2ccccc2Cl)CN1c1ccccc1F (stereo not drawn) | 18.1 (≈ 43.2 µM) |
| Cc1ccc(-c2nnc(NC(=O)c3ccc(F)cc3)o2)c(C)c1 | 26.3 (≈ 84.5 µM) |
| O=C(CCc1ccccc1)Nc1nnc(-c2cc(Cl)ccc2Cl)o1 | 26.6 (≈ 73.4 µM) |
| O=C(Nc1cccc(Br)c1)c1ccc([N+](=O)[O-])s1 | < 0.2 |
| CSc1ccccc1-c1nnc(NC(=O)c2cc(Cl)sc2Cl)o1 | 11.7 (≈ 30.2 µM) |
| CCOC(CNc1ncnc2c1cnn2-c1ccc(C)c(C)c1)OCC | 21.8 (≈ 61.4 µM) |
| O=C(Cc1cccc2ccccc12)Nc1nnc(-c2ccc(F)cc2)o1 | 22.4 (≈ 64.4 µM) |
| COc1ccc(C)c2sc(NNC(=O)c3nc4ccccc4s3)nc12 | 38 (≈ 103 µM) |
| O=C(Nc1nnc(-c2ccc3c(c2)CCCC3)o1)c1ccc(Cl)cc1Cl | 0.91 (≈ 2.34 µM) |
| Cc1ccc(C)c(-c2nnc(NC(=O)C3CC3)o2)c1 | 1.46 (≈ 5.67 µM) |
| Cc1ccc(N=C2NC(=O)C(Cc3ccccc3Cl)S2)cc1 (stereo not drawn) | 25.4 (≈ 76.9 µM) |

| SMILES | IC90 [µg/mL] |
| --- | --- |
| O=C(Nc1nc2c(s1)CCc1ccccc1-2)c1cccc(Br)c1 | 16.8 (≈ 43.6 µM) |
| O=C(NCCSc1c[nH]c2ccccc12)Nc1c[nH]c2ccccc12 | 10.2 (≈ 29.1 µM) |
| CC(C)(C)c1ccc(-n2c(=O)[nH]c3c(C(N)=O)nc(CCc4ccccc4)nc32)cc1 | 2.36 (≈ 5.68 µM) |
| CCS(=O)(=O)c1cccc(C(=O)Nc2nnc(-c3ccc(Br)cc3)o2)c1 | 7.76 (≈ 17.8 µM) |
| COc1ccc(C(=O)Nc2nc3c(s2)CCCC3)cc1OC | 22.8 (≈ 71.7 µM) |
| CC(=O)N1CCc2c(sc(NC(=O)C(C)C)c2-c2nc3ccccc3s2)C1 | 13.5 (≈ 33.7 µM) |
| COc1ccc2nc(Nc3nc(-c4cccs4)cs3)sc2c1 | 37.8 (≈ 109 µM) |
| COc1ccc2nc(N(CCCn3ccnc3)C(=O)Cc3ccc(F)cc3)sc2c1 | 5.64 (≈ 13.3 µM) |
| COc1cccc(C(=O)Nc2nc3c(s2)CCc2ccccc2-3)c1 | 11.3 (≈ 33.6 µM) |
| Cc1ccccc1C(=O)Nc1nnc(-c2cccnc2)o1 | 50.1 (≈ 179 µM) |
| COC(=O)c1c(NC(=O)c2cc3ccccc3cc2OC)sc2c1CC(C)(C)NC2(C)C | 31.8 (≈ 70.2 µM) |
| O=C(Nc1nnc(-c2ccc(Cl)s2)o1)c1cccc([N+](=O)[O-])c1 | 6.09 (≈ 17.4 µM) |
| O=C(NNc1nc2c(F)cc(F)cc2s1)c1coc2ccccc2c1=O | 3.33 (≈ 8.92 µM) |
| COc1ccc(C)c2sc(N(CCCn3ccnc3)C(=O)Cc3ccccc3)nc12 | 21.1 (≈ 50.3 µM) |
| COc1ccc2nc(Nc3ccc4nc(C)sc4c3)sc2c1 | 15.2 (≈ 46.5 µM) |
| COc1ccc(OC)c(NC(=O)c2cc3cc(Cl)ccc3oc2=O)c1 | 0.77 (≈ 2.14 µM) |
| Cc1c(Cl)ccc2sc(N(CCCn3ccnc3)C(=O)COc3ccccc3)nc12 | 3.05 (≈ 6.92 µM) |
| O=C(Nc1nnc(-c2cccs2)o1)c1ccc2c(c1)CCCC2 | 37.6 (≈ 116 µM) |
| Cc1ccc(-c2nnc(NC(=O)c3cccc(Oc4ccccc4)c3)o2)c(C)c1 | 25.3 (≈ 65.5 µM) |
| CCOc1ccc(-c2[nH]ncc2-c2ccc(Cl)cc2)c(O)c1 | 7.06 (≈ 22.4 µM) |
| O=C(CCSc1ccccc1)Nc1nnc(-c2ccc3c(c2)OCCO3)o1 | 16.8 (≈ 43.9 µM) |
| COc1ccc(Cn2cc3c(-c4ccccc4)nnc-3c3cc(OC)c(OC)cc32)cc1 | 6.64 (≈ 15.6 µM) |
